# Reference: the NIST ThermoML archive (doi:10.1016/j.jct.2008.01.002)
# Numbers after ± are expanded uncertainties.
# Experiments:
# [1] = refractive index (Na D-line) (dimensionless); conditions: 298.15 K; 101.33 kPa; Liquid; Standard Abbe refractometry
# [2] = Liquid; for mass density: 298.15 K, 101.33 kPa; for Normal boiling temperature: Closed cell (Static) method
SMILES,refractive index [1],mass density [2] [kg/m3],Normal boiling temperature [2] [°C],mass density ([2]; Vibrating tube method) [kg/m3]
CC(C)OC(C)C [diisopropyl ether],1.3652 ± 0.0005,718.32 ± 0.96,68.2 ± 0.2,
CCCOCCC [dipropyl ether],1.3784 ± 0.0005,741.81 ± 0.56,90.01 ± 0.2,
CCCO [propan-1-ol],1.3836 ± 0.0005,799.62 ± 0.79,96.60 ± 0.2,

# The remaining lines, values ahead:
refractive index [1],mass density [2] [kg/m3],Normal boiling temperature [2] [°C],mass density ([2]; Vibrating tube method) [kg/m3],SMILES
1.3754 ± 0.0005,,82.10 ± 0.2,782.69 ± 0.12,CC(C)O [propan-2-ol]
1.3332 ± 0.0005,,100.00 ± 0.2,,O [water]
